Measurements as given in patent EP0202903A2, “Control of ectoparasites” (priority 1985, dated 1986).

System: guinea pigs
Assay: Guinea pig systemic test: death of the treated guinea pig before blood sampling
Type: in vivo
Procedure: Adult guinea pigs were used in this test system. The compounds to be tested were dissolved in aqueous polyvinyl pyrrolidone or in polyethylene glycol 200, and an appropriate amount of the solution was administered by intraperitoneal injection. Various doses of the compound were used, as named in the tables below.
Blood was drawn from the guinea pigs at different times, shown in the tables below, and the samples of blood were centrifuged. Dental wicks were saturated with the blood serum, and were then exposed in Petri dishes to adult stable flies or adult house flies; blow fly larvae were exposed in test tubes. Various species were used in various tests. After 24 hours, the insects were examined, and the number of dead were counted.

[1] = 10 mg./kg. intraperitoneal, sampling at 6 hours
[2] = 10 mg./kg. intraperitoneal, sampling at 24 hours
[3] = 25 mg./kg. intraperitoneal, sampling at 6 hours
[4] = 100 mg./kg. intraperitoneal, sampling at 24 hours
[5] = 25 mg./kg. intraperitoneal, sampling at 48 hours
[6] = 25 mg./kg. intraperitoneal, sampling at 2 hours

Measured: Dead (guinea pig died before its blood was sampled)

O=C(CC(=O)C(F)(F)C(F)(F)C(F)(F)F)c1ccc(Cl)s1 [Example 1, 1-(5-Chlorothien-2-yl)-3-perfluoropropyl-1,3-propanedione]
Dead: 5 mg./kg. intraperitoneal, sampling at 24 hours | [1] | [2] | 10 mg./kg. intraperitoneal, sampling at 48 hours | 25 mg./kg. intraperitoneal, sampling at 4 hours | [3] | 30 mg./kg. intraperitoneal, sampling at 6 hours | 40 mg./kg. intraperitoneal, sampling at 6 hours | 50 mg./kg. intraperitoneal, sampling at 4 hours | 50 mg./kg. intraperitoneal, sampling at 6 hours | 50 mg./kg. intraperitoneal, sampling at 24 hours | [4]

O=C(CC(=O)C(F)(F)C(F)(F)C(F)(F)F)c1ccc([N+](=O)[O-])cc1.[Na] [Example 4, 1-(4-Nitrophenyl)-3-perfluoropropyl-1,3-propanedione, sodium salt]
Dead: [4]

O=C(CC(=O)C1(F)C(F)(F)C(F)(F)C(F)(F)C(F)(F)C1(F)F)c1ccc(Cl)s1 [Example 5, 1-(5-Chlorothien-2-yl)-3-perfluorocyclo-hexyl-1,3-propanedione]
Dead: 25 mg./kg. intraperitoneal, sampling at 5 hours

O=C(CC(=O)C(F)(F)C(F)(F)C(F)(F)F)c1cc(Cl)sc1Cl [Example 3, 1-(2,5-Dichlorothien-3-yl)-3-perfluoropropyl-1,3-propanedione]
Dead: [2] | [3] | 25 mg./kg. intraperitoneal, sampling at 24 hours

O=C(CC(=O)C(F)(F)C(F)(F)C(F)(F)F)c1ccc(C(F)(F)F)cc1 [Example 14, 1-Perfluoropropyl-3-(4-trifluoromethylphenyl)-1,3-propanedione]
Dead: 5 mg./kg. intraperitoneal, sampling at 5 hours | 5 mg./kg. intraperitoneal, sampling at 48 hours | [1] | [3]

O=C(CC(=O)C(F)(F)C(F)(F)C(F)(F)F)c1cccc(C(F)(F)F)c1.[Na] [Example 12, 1-Perfluoropropyl-3-(3-trifluoromethylphenyl)-1,3-propanedione, sodium salt]
Dead: [3] | [5]

O=C(CC(=O)C(F)(F)C(F)(F)C(F)(F)F)c1ccc(C(F)(F)F)cc1.[Na] [Example 13, 1-Perfluoropropyl-3-(4-trifluoromethylphenyl)-1,3-propanedione, sodium salt]
Dead: [6]

O=C(CC(=O)C(F)(F)C(F)(F)C(F)(F)F)c1ccc(Cl)cc1 [Example 8, 1-(4-Chlorophenyl)-3-perfluoropropyl-1,3-propanedione]
Dead: 10 mg./kg. intraperitoneal, sampling at 5 hours | [6] | [5] | 50 mg./kg. intraperitoneal, sampling at 2 hours | 100 mg./kg. intraperitoneal, sampling at 2 hours

O=C(CC(=O)C(F)(F)C(F)(F)C(F)(F)F)c1cc(Cl)c(Cl)s1 [Example 7, l-(4,5-Dichlorothien-2-yl)-3-perfluoropropyl-1,3-propanedione]
Dead: [2]
